“Also recorded” adds a separate entry of the source. Oligonucleotides are written 5' to 3', each unit as a sugar letter and its base; * is a phosphorothioate linkage, no mark a phosphodiester; rarer units and linkages stand in square brackets, end groups in braces. Plain capitals give the bases only. d = 2'-deoxy (DNA)

The test system of data set [1] is survivin. Briefly: Western blot of survivin protein in antisense oligonucleotide-treated MSN cells. It is filed as cell-based, human. As for the experimental part:
Six survivin (900-906) antisense oligonucleotides were administered at 400 nM to MSN cells in the presence of lipofectin for 48 hours. Each lane has 100 μg of protein. The blots were cut at 32.9 kD and the bottom incubated with the survivin polyclonal antibody (1:500), while the top was incubated with β-tubulin.
Since survivin antisense oligonucleotide 903 decreased survivin protein levels by 76%, the dose dependency of 903 on survivin protein levels was further studied. As expected, mismatched oligonucleotides had no effect on the relative abundance of survivin. […] In the presence of lipofectin, survivin antisense oligonucleotide 903 was administered to MSN cells for 48 hours at 50 nM to 200 nM. Total protein (100 μg) was loaded/lane.
Survivin antisense oligonucleotide 904 decreased survivin protein levels by 46% and 60% while survivin levels were unchanged in cells incubated with the mismatched oligonucleotide 1132. MSN cells were treated with lipofectin, survivin antisense oligonucleotide 904 or 908 at 400 nM and 600 nM, or mismatched oligonucleotide 1132 at 400 nM concentrations. Total protein (100 μg) was separated by SDS polyacrylamide gel electrophoresis and transferred to a nitrocellulose support. The blots were cut at 32.9 kD and the bottom blots incubated with the survivin polyclonal antibody (1:500), while the top blots were incubated with tubulin.
The antisense oligonucleotides were synthesized on solid support with an automated DNA synthesizer using β-cyanoethylphosphoramidite chemistry. In order to prevent rapid degradation of the antisense oligonucleotides by cellular nucleases, oxidation was carried out with Becauge sulfurizing agent to obtain phosphorothioate backbone modified oligonucleotides. After their synthesis, the oligonucleotides were released from the solid support, deprotected, purified by reverse-phase HPLC, desalted, filtered and lyophilized. The purity and sequence integrity of oligonucleotides was ascertained by capillary gel electrophoresis and MALDI-TOF mass spectral analysis and the concentrations measured at […]. Cells were grown in 100 mm dishes and oligonucleotide treatment was performed on subconfluent cultures in the presence of Lipofectin (GIBCO) according to the manufacturer. Forty-eight hours following treatment, total protein homogenates were isolated.
(§1) Ten micrograms of the fusion protein was incubated with the survivin antibody (1:500) at 4° C. for 2 hours to overnight prior to immunoblotting. […] Blots were cut at 32.9 kD, and the bottom part of the blots were incubated with the survivin antibody overnight at 4° C. and visualized by enhanced chemiluminescence (Enhanced Chemiluminescence, Amersham, Arlington Heights, Ill.) as previously described (Sharma et al. Cell. Motil. Cytoskeleton 27:234-247).
In general terms: Immunoblotting shows a protein as a band on a membrane.

Data set [2] has as its system caspase-3. Briefly: Caspase-3 activity assay in MSN cells. The data set is classed as cell-based, human. As for the experimental part:
MSN cells were treated with lipofectin, 400 nM survivin antisense oligonucleotide 903, 904, or mismatched oligonucleotide 1132, for a 48 hour period. Cell pellets were washed twice in cold PBS and re-suspended in ice-cold hypotonic cell lysis buffer (25 mM HEPES, pH 7.5, 5 mM MgCl2, 5 mM EDTA, 5 mM DTT, 2 mM PMSF, 10 μg/ml pepstatin A, 10 μg/ml leupeptin). Re-suspended pellets were incubated on ice for 20 min, followed by brief sonication for two seconds. Lysates were centrifuged at 14,000 rpm for 20 minutes at 4° C. The supernatant was retained and the protein concentration analyzed by the Bio-Rad protein assay described above.
Supernatants were assayed in triplicate, with and without the caspase-3 inhibitor, Ac-DEVD-CHO, using black opaque, 96 well, flat bottom plates (Greiner Laboratories, USA Scientific Inc., Orlando, Fla.). 50-100 μg of the supernatant was incubated in caspase-3 assay buffer (100 mM HEPES, pH 7.5, 10% sucrose, 0.1% CHAPS and 10 mM DTT) with either 2 μl of DMSO or 2 μl of 2.5 mM Ac-DEVD-CHO (Pharmingen, San Diego, Calif.) so that the final concentration of the inhibitor was 50 μM in a final volume of 100 μl. It was then incubated at 30° C. for 30 minutes. Subsequently, 2 μl of the caspase-3 substrate 2.5 mM Ac-DEVD-AMC (Pharmingen, San Diego, Calif.) (final concentration 50 μM)) was added to each well. Plates were incubated at 30° ° C. for 60 minutes in the dark.
Fluorescence of the reaction was measured using a SPECTRAmax GEMINI spectrofluorometer using SOFTmax® PRO software (Molecular Devices, Sunnyvale, Calif.) at an excitation wavelength of 355 nm and an emission wavelength of 460 nm with a cutoff filter of 455 nm. The data is presented as the ratio of the mean relative fluorescence units/mg protein±SD.

For data set [3], the system named is XIAP. The following applies: MSN cells; 400 nM; 48 hours (FIG. 10A). As to the method:
MSN cells were treated with lipofectin or 400 nM survivin antisense oligonucleotides 900, 901, 903, 904, 905 and 906. Total protein was isolated 48 hours after treatment, and 100 μg of protein was loaded per lane. The blot was incubated with a monoclonal antibody against XIAP (1:1000; IgG1). Visualization was by enhanced chemiluminescence (ECL). […] The experiment was performed twice.
Total protein homogenates were prepared according to a previously described procedure (Albala et al. (1995) J. Neurochem. 64:2480-2490). Protein content was measured using the Bio-Rad detection system (Bio-Rad Laboratories, Hercules, Calif.). Equal amounts of protein were analyzed by SDS-PAGE on 10% gels (Laemmli (1970) Nature 227:680-685). The resolved polypeptides were electrophoretically transferred to nitrocellulose (Towbin et al. (1979) Proc. Natl. Acad. Sci. USA 76:4350-4354).
Survivin polyclonal antibody was purchased from R & D Systems, Inc. (Minneapolis, Minn.). […] A generic β-tubulin monoclonal antibody (TUB 2.1) was purchased from SIGMA (St. Louis, Mo.). The XIAP mAb was purchased from StressGen Biotechnologies Corp. (Victoria, Canada). The poly-ADP ribosyl polymerase (PARP) mAb was purchased from PharMingen/Transduction Laboratories (San Diego, Calif.).

Data set [4] relates to PARP. The experiment in a line: PARP cleavage immunoblot in MSN cells. The data set is classed as cell-based, human. As for the experimental part: To determine whether MSN cell death by survivin antisense oligonucleotides was mediated by caspase-3 activation, studies were conducted to examine whether PARP was cleaved following survivin antisense treatment. […] Since no PARP cleavage was detected, further tests were conducted to determine whether survivin antisense-treated cells have any active caspase-3.

Data set [5] has as its system survivin. The experiment in a line: Western blot of survivin protein in MSN cells treated with cell cycle checkpoint blockers. It is filed as cell-based, human. The following applies: for fold increase of survivin protein relative to DMSO or EtOH: MSN cells, vinblastine 250 nM, nocadozole 10 μM, taxotere 1 μM; for survivin expression / survivin protein abundance after cell cycle blocker: result in words, cell line not given. As for the experimental part: Total protein was isolated from MSN cells either untreated or treated with vinblastine (250 nM), nocadozole (10 μM), or taxotere (1 μM). DMSO and ethanol (EtOH) were added as carriers. Each lane had 75 μg of total protein. The blots were cut at 32.9 kD, and the bottom blots were incubated with a survivin polyclonal antibody (1:500), while the top blot was incubated with a β-tubulin mAb (1:1000). In each of the treatments, the fold increase of survivin protein relative to DMSO or EtOH was vinblastine, 1.9; nocadozole, 2.6; taxotere, 1.7.
(§2) To block cells in G2/Ml MSN cells or TC620 cells were treated with 10 μM nocodazole, 1 μM taxotere, or 250 nM vinblastine for 16 hours, at which time total protein homogenates were isolated and proteins were examined following sodium dodecyl sulfate-polyacrylamide gel electrophoresis (SDS-PAGE) and immunoblotting.
as §1

The test system of data set [6] is MSN cells. Briefly: Flow cytometry of MSN cells treated with G2/M blockers. It is filed as cell-based, human. As to the method: Next, the regulation of survivin expression at G2/M cell cycle checkpoints was evaluated. First, survivin expression was increased following treatment with the G2/M checkpoint blockers, vinblastine, nocodazole, and taxotere.
The test system of data set [7] is caspase-3. Briefly: Caspase-3 activity assay in MSN cells. It is filed as cell-based, human. This is another data set of the same source.
In data set [8] the test system is survivin. Briefly: Western blot of survivin protein in nocodazole-treated TC620 cells. To be noted: nocodazole 10 μM, 24 h. It is filed as cell-based, human. As to the method: The Western blot as represented in FIG. 2B was prepared by isolating total protein from nocadozole-treated (10 μM, 24 h) and untreated TC620 cells, MSN cells, and Jurkat cells. Each lane had 75 μg of total protein.
as §2

[9] abbreviates: 400 nM, lipofectin, 48 hours (FIG. 3A).

Regarding “d(CCCTAGCTCACACTCTCATT) (antisense dC*dC*dC*dT*dA*dG*dC*dT*dC*dA*dC*dA*dC*dT*dC*dT*dC*dA*dT*dT) [Oligo 903, 20-mer phosphorothioate survivin antisense oligonucleotide, complementary to survivin mRNA 4385-4404]”, the “percentage of survivin protein over β-tubulin relative to lipofectin” value turned out to be 83.9% in data set [1] (50 nM, 48 hours (FIG. 3B)); 62.6% in data set [1] (75 nM, 48 hours (FIG. 3B)); 95.6% in data set [1] (100 nM, 48 hours (FIG. 3B)); 48.5% in data set [1] (200 nM, 48 hours (FIG. 3B)); 24.3% in data set [1] (setting [9]). The same molecule displayed a reduction in survivin in data set [1] (200 nM, 48 hours (FIG. 3B)) of 51%. Besides, the “decrease in survivin protein levels relative to lipofectin-treated control, normalized to β-tubulin” value in data set [1] (400 nM, 48 hours (FIG. 3A)) was 76%. Besides, the “effect on survivin protein levels” value in data set [1] (lipofectin, 48 hours) is recorded as “concentration-dependent decrease in survivin protein levels”. Moreover, in data set [2] (MSN cells, 400 nM, 48 hours), the “caspase-3 activity” value is given as “no significant increase in caspase-3 activity; also recorded: did not activate caspase-3”. Moreover, the “caspase-3 activity, Relative units/mg protein +/− SD” value in data set [2] (MSN cells, 400 nM, 48 hours, triplicate) is given as 27,850 ± 2311 Relative units/mg protein. Also, the “fold change of XIAP protein over β-tubulin relative to lipofectin” value in data set [3] worked out at 5.2 fold. For the same molecule, in data set [4], the “PARP cleavage, words” value was “did not activate caspase-3 or cleave the caspase-3 substrate, PARP”.
In the case of “d(GAGCCTTCCTCTTCATGTCC) (antisense dG*dA*dG*dC*dC*dT*dT*dC*dC*dT*dC*dT*dT*dC*dA*dT*dG*dT*dC*dC) [Oligo 905]”, the “fold change of XIAP protein over β-tubulin relative to lipofectin” value in data set [3] is 7.6 fold.
Take `CC[C@]1(O)C[C@@H]2CN(CCc3c([nH]c4ccccc34)[C@@](C(=O)OC)(c3cc4c(cc3OC)N(C)[C@H]3[C@@](O)(C(=O)OC)[C@H](OC(C)=O)[C@]5(CC)C=CCN6CC[C@]43[C@@H]65)C2)C1` [vinblastine]: in data set [5], the “fold increase of survivin protein relative to DMSO or EtOH” value was determined as 1.9 fold and the “survivin expression / survivin protein abundance after cell cycle blocker” value is listed as “increased”. Further, the “cell cycle phase by flow cytometry” value in data set [6] is “blocked at the G2/M cell cycle phase”.
In the case of “d(CAGTGGATGAAGGCAGCCTC) (antisense dC*dA*dG*dT*dG*dG*dA*dT*dG*dA*dA*dG*dG*dC*dA*dG*dC*dC*dT*dC) [Oligo 901]”, in data set [1] (setting [9]), the “percentage of survivin protein over β-tubulin relative to lipofectin” value is listed as 38.3%. For the same molecule, the “fold change of XIAP protein over β-tubulin relative to lipofectin” value in data set [3] amounted to 3.9 fold.
For `CN1CC[C@H](c2c(O)cc(O)c3c(=O)cc(-c4ccccc4Cl)oc23)[C@H](O)C1` [flavopiridol], in data set [5], the “survivin expression / survivin protein abundance after cell cycle blocker” value was “did not alter survivin protein abundance”.
Consider “d(GCCAGTTCTTGAATGTAGAG) (antisense dG*dC*dC*dA*dG*dT*dT*dC*dT*dT*dG*dA*dA*dT*dG*dT*dA*dG*dA*dG) [Oligo 900]”, for which the “percentage of survivin protein over β-tubulin relative to lipofectin” value in data set [1] (setting [9]) stood at 77.7%. Moreover, the “fold change of XIAP protein over β-tubulin relative to lipofectin” value in data set [3] is 2.3 fold.
In the case of `CN[C@@H]1C[C@H]2O[C@@](C)([C@@H]1OC)n1c3ccccc3c3c4c(c5c6ccccc6n2c5c31)C(=O)NC4` [Staurosporine], the “caspase-3 activity, Relative units/mg protein +/− SD” value in data set [7] (1 μM, 6 hours, triplicate) is reported as 264,281 ± 8130 Relative units/mg protein. Besides, in data set [7] (staurosporine treatment), the “fold increase in caspase-3 activity” value was “over 7 fold”.
As to Ac-DEVD-CHO [reference compound], the “effect of caspase-3 inhibitor on caspase-3 activation in the assay” value in data set [2] (added to MSN cell supernatants, final concentration 50 μM) is recorded as “eliminated caspase-3 activation”.
With `COC(=O)Nc1nc2ccc(C(=O)c3cccs3)cc2[nH]1` [nocodazole], in data set [5], the “fold increase of survivin protein relative to DMSO or EtOH” value stood at 2.6 fold and the “survivin expression / survivin protein abundance after cell cycle blocker” value is given as “increased”. Moreover, the “fold increase in survivin protein” value in data set [8] turned out to be 1.6 fold.
Consider `CC(=O)O[C@@]12CO[C@@H]1C[C@H](O)[C@@]1(C)C(=O)[C@H](O)C3=C(C)[C@@H](OC(=O)[C@H](O)[C@@H](NC(=O)OC(C)(C)C)c4ccccc4)C[C@@](O)([C@@H](OC(=O)c4ccccc4)[C@H]21)C3(C)C` [taxotere], for which, in data set [5], the “fold increase of survivin protein relative to DMSO or EtOH” value is 1.7 fold and the “survivin expression / survivin protein abundance after cell cycle blocker” value was “increased”. Also, the “cell cycle phase by flow cytometry” value in data set [6] is “blocked at the G2/M cell cycle phase”.

Values taken from US20030125287A1, “Antisense oligonucleotides and methods to induce tumor cell death” (Hybridon, Inc., priority 2001, published 2003).
